Experimental data as given in the supplement of paper PMC10307832.

How the values were obtained:
Assay in all cases: relative viability (nuclei count vs DMSO), 5 days (fraction); higher = more cells survive
ABC-1 = test system: ABC-1
How it was run: (§1)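 A single step with final 0.05% Triton X-100, 1% formaldehyde and 1 ug/ml Hoechst fixed the cells and stained nuclei 5 days after treatment. Lung cancer cell lines in 1536-well plates had been treated by pin tool the day after seeding with one drug alone or a fixed anchor-drug dose plus five library-drug doses (not always all listed) in √10 steps, and nuclei were counted on 4× images. Relative viability is the ratio of nuclei in treated wells to nuclei in vehicle wells, taken as the median of duplicate plates.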

CAL-12T = test system: CAL-12T
How it was run: as §1

COR-L23 = test system: COR-L23
How it was run: as §1

EKVX = test system: EKVX
How it was run: as §1

H3255 = test system: H3255
How it was run: as §1

HCC-15 = test system: HCC-15
How it was run: as §1

HCC-827 = test system: HCC-827
How it was run: as §1

LK-2 = test system: LK-2
How it was run: as §1

NCI-H1355 = test system: NCI-H1355
How it was run: as §1

NCI-H1437 = test system: NCI-H1437
How it was run: as §1

NCI-H1563 = test system: NCI-H1563
How it was run: as §1

NCI-H1650 = test system: NCI-H1650
How it was run: as §1

NCI-H1651 = test system: NCI-H1651
How it was run: as §1

NCI-H1734 = test system: NCI-H1734
How it was run: as §1

NCI-H2228 = test system: NCI-H2228
How it was run: as §1

NCI-H2405 = test system: NCI-H2405
How it was run: as §1

NCI-H322M = test system: NCI-H322M
How it was run: as §1

NCI-H520 = test system: NCI-H520
How it was run: as §1

NCI-H661 = test system: NCI-H661
How it was run: as §1

PC-14 = test system: PC-14
How it was run: as §1

PC-3 [JPC-3] = test system: PC-3 [JPC-3]
How it was run: as §1

RERF-LC-KJ = test system: RERF-LC-KJ
How it was run: as §1

SK-MES-1 = test system: SK-MES-1
How it was run: as §1

SW 1573 = test system: SW 1573
How it was run: as §1

Clc1ccc(Nc2nnc(Cc3ccncc3)c3ccccc23)cc1 [Vatalanib] + COc1cccc2cc(-c3nc([C@H]4CC[C@H](C(=O)O)CC4)n4ncnc(N)c34)[nH]c12 [OSI-027] (partner 0.5 µM)
relative viability (ABC-1; first compound 0.04 µM): 0.444 | relative viability (ABC-1; first compound 0.1265 µM): 0.512 | relative viability (ABC-1; first compound 1.265 µM): 0.381 | relative viability (ABC-1; first compound 4 µM): 0.486 | relative viability (CAL-12T; first compound 0.04 µM): 0.574 | relative viability (CAL-12T; first compound 0.1265 µM): 0.523 | relative viability (CAL-12T; first compound 0.4 µM): 0.583 | relative viability (CAL-12T; first compound 1.265 µM): 0.556 | relative viability (CAL-12T; first compound 4 µM): 0.581 | relative viability (COR-L23; first compound 0.04 µM): 0.814 | relative viability (COR-L23; first compound 0.1265 µM): 0.765 | relative viability (COR-L23; first compound 0.4 µM): 0.891 | relative viability (COR-L23; first compound 1.265 µM): 0.709 | relative viability (COR-L23; first compound 4 µM): 0.722 | relative viability (EKVX; first compound 0.04 µM): 0.743 | relative viability (EKVX; first compound 0.1265 µM): 0.663 | relative viability (EKVX; first compound 0.4 µM): 0.663 | relative viability (EKVX; first compound 4 µM): 0.643 | relative viability (H3255; first compound 0.04 µM): 0.566 | relative viability (H3255; first compound 0.1265 µM): 0.529 | relative viability (H3255; first compound 0.4 µM): 0.51 | relative viability (H3255; first compound 1.265 µM): 0.584 | relative viability (H3255; first compound 4 µM): 0.504 | relative viability (HCC-15; first compound 0.04 µM): 0.714 | relative viability (HCC-15; first compound 0.1265 µM): 0.724 | relative viability (HCC-15; first compound 0.4 µM): 0.535 | relative viability (HCC-15; first compound 1.265 µM): 0.582 | relative viability (HCC-15; first compound 4 µM): 0.523 | relative viability (HCC-827; first compound 0.04 µM): 0.818 | relative viability (HCC-827; first compound 0.1265 µM): 0.729 | relative viability (HCC-827; first compound 0.4 µM): 0.739 | relative viability (HCC-827; first compound 1.265 µM): 0.744 | relative viability (HCC-827; first compound 4 µM): 0.705 | relative viability (LK-2; first compound 0.04 µM): 0.211 | relative viability (LK-2; first compound 0.1265 µM): 0.208 | relative viability (LK-2; first compound 0.4 µM): 0.214 | relative viability (LK-2; first compound 1.265 µM): 0.196 | relative viability (LK-2; first compound 4 µM): 0.198 | relative viability (NCI-H1355; first compound 0.04 µM): 0.427 | relative viability (NCI-H1355; first compound 0.1265 µM): 0.431 | relative viability (NCI-H1355; first compound 0.4 µM): 0.435 | relative viability (NCI-H1355; first compound 1.265 µM): 0.413 | relative viability (NCI-H1355; first compound 4 µM): 0.34 | relative viability (NCI-H1437; first compound 0.04 µM): 0.942 | relative viability (NCI-H1437; first compound 0.1265 µM): 0.949 | relative viability (NCI-H1437; first compound 0.4 µM): 0.937 | relative viability (NCI-H1437; first compound 1.265 µM): 0.792 | relative viability (NCI-H1437; first compound 4 µM): 0.879 | relative viability (NCI-H1563; first compound 0.04 µM): 0.735 | relative viability (NCI-H1563; first compound 0.1265 µM): 0.677 | relative viability (NCI-H1563; first compound 0.4 µM): 0.827 | relative viability (NCI-H1563; first compound 1.265 µM): 0.698 | relative viability (NCI-H1563; first compound 4 µM): 0.738 | relative viability (NCI-H1650; first compound 0.04 µM): 0.769 | relative viability (NCI-H1650; first compound 0.1265 µM): 0.454 | relative viability (NCI-H1650; first compound 0.4 µM): 0.438 | relative viability (NCI-H1650; first compound 1.265 µM): 0.633 | relative viability (NCI-H1650; first compound 4 µM): 0.514 | relative viability (NCI-H1651; first compound 0.04 µM): 0.751 | relative viability (NCI-H1651; first compound 0.1265 µM): 0.723 | relative viability (NCI-H1651; first compound 0.4 µM): 0.662 | relative viability (NCI-H1651; first compound 1.265 µM): 0.644 | relative viability (NCI-H1651; first compound 4 µM): 0.615 | relative viability (NCI-H1734; first compound 0.04 µM): 0.675 | relative viability (NCI-H1734; first compound 0.1265 µM): 0.463 | relative viability (NCI-H1734; first compound 0.4 µM): 0.697 | relative viability (NCI-H1734; first compound 1.265 µM): 0.563 | relative viability (NCI-H1734; first compound 4 µM): 0.589 | relative viability (NCI-H2228; first compound 0.04 µM): 0.568 | relative viability (NCI-H2228; first compound 0.1265 µM): 0.566 | relative viability (NCI-H2228; first compound 0.4 µM): 0.604 | relative viability (NCI-H2228; first compound 1.265 µM): 0.589 | relative viability (NCI-H2228; first compound 4 µM): 0.504 | relative viability (NCI-H2405; first compound 0.04 µM): 0.665 | relative viability (NCI-H2405; first compound 0.1265 µM): 0.631 | relative viability (NCI-H2405; first compound 1.265 µM): 0.666 | relative viability (NCI-H2405; first compound 4 µM): 0.608 | relative viability (NCI-H322M; first compound 0.04 µM): 0.573 | relative viability (NCI-H322M; first compound 0.1265 µM): 0.546 | relative viability (NCI-H322M; first compound 0.4 µM): 0.493 | relative viability (NCI-H322M; first compound 1.265 µM): 0.52 | relative viability (NCI-H322M; first compound 4 µM): 0.481 | relative viability (NCI-H520; first compound 0.04 µM): 0.25 | relative viability (NCI-H520; first compound 0.1265 µM): 0.23 | relative viability (NCI-H520; first compound 0.4 µM): 0.244 | relative viability (NCI-H520; first compound 1.265 µM): 0.252 | relative viability (NCI-H520; first compound 4 µM): 0.224 | relative viability (NCI-H661; first compound 0.04 µM): 0.737 | relative viability (NCI-H661; first compound 0.1265 µM): 0.699 | relative viability (NCI-H661; first compound 0.4 µM): 0.709 | relative viability (NCI-H661; first compound 1.265 µM): 0.717 | relative viability (NCI-H661; first compound 4 µM): 0.67 | relative viability (PC-14; first compound 0.04 µM): 1.05 | relative viability (PC-14; first compound 0.1265 µM): 0.782 | relative viability (PC-14; first compound 0.4 µM): 0.844 | relative viability (PC-14; first compound 1.265 µM): 0.672 | relative viability (PC-14; first compound 4 µM): 0.849 | relative viability (PC-3 [JPC-3]; first compound 0.04 µM): 0.752 | relative viability (PC-3 [JPC-3]; first compound 0.1265 µM): 0.698 | relative viability (PC-3 [JPC-3]; first compound 0.4 µM): 0.771 | relative viability (PC-3 [JPC-3]; first compound 1.265 µM): 0.733 | relative viability (PC-3 [JPC-3]; first compound 4 µM): 0.672 | relative viability (RERF-LC-KJ; first compound 0.04 µM): 0.657 | relative viability (RERF-LC-KJ; first compound 0.1265 µM): 0.591 | relative viability (RERF-LC-KJ; first compound 0.4 µM): 0.588 | relative viability (RERF-LC-KJ; first compound 1.265 µM): 0.549 | relative viability (RERF-LC-KJ; first compound 4 µM): 0.564 | relative viability (SK-MES-1; first compound 0.04 µM): 0.634 | relative viability (SK-MES-1; first compound 0.1265 µM): 0.588 | relative viability (SK-MES-1; first compound 0.4 µM): 0.77 | relative viability (SK-MES-1; first compound 1.265 µM): 0.578 | relative viability (SK-MES-1; first compound 4 µM): 0.575 | relative viability (SW 1573; first compound 0.04 µM): 0.714 | relative viability (SW 1573; first compound 0.1265 µM): 0.574 | relative viability (SW 1573; first compound 0.4 µM): 0.666 | relative viability (SW 1573; first compound 1.265 µM): 0.585 | relative viability (SW 1573; first compound 4 µM): 0.59
